Experiments:
[1] = tested on: SRS-A release from lung tissue; test: Release of slow reacting substance of anaphylaxis (SRS-A) from sensitized lung tissue; type: cell-based, Guinea-pigs; settings: Cavia porcellus, sensitized guinea-pig lung tissue, egg albumen 100 μg/ml; for inhibition at 0.01 µg/mL: 0.01 μg/ml; for inhibition at 0.1 µg/mL: 0.1 μg/ml
Procedure: Release of slow reacting substance of analphylaxis (SRS-A):
Guinea-pigs were sensitized with egg albumen, which was administered as a 10% solution, 100 mg both intraperitoneally and subcutaneously. Three to four weeks later the animals were killed by a blow on the head and the heart and lungs removed from the body and cleaned of blood. The lung tissue was dissected free from the heart, trachea and major bronchioles and then finely chopped. Portions of the lung tissue in 5 ml of Tyrode solution were preincubated with each test solution (50 μl) containing a test compound for 5 minutes at 37° C, to those were added 50 μl of egg albumen (100 μg/ml in a final concentration). The incubation mixture were further incubated for 15 minutes at 37° C. After centrifugation, the supernatant was assayed for SRS-A. The activity of SRS-A was assayed on the isolated guinea-pig ileum in the presence of atropine (5 × 10^-8 g/ml) and pyribenzamine (10^-7 g/ml). The percent inhibition was calculated using the following formula: [formula]

[2] = tested on: histamine release from the peritoneal cavity; test: Histamine release from the peritoneal cavity (dextran i.p.); type: in vivo, male Wistar rats; settings: Rattus norvegicus, ip; dose required for 50% inhibition; test compound i.p., dextran 180 mg/kg i.p.; rats
Procedure: Histamine release from the peritoneal cavity:
The method used was similar to that described by Hanahoe et al. (T.H.P. Hanahoe, A. Holliman, D. Gordon and W. Wieczorek, J. Pharm. Pharmac. 24, 666 (1972)). Groups of ten male Wistar rats (200-230 g) were injected intraperitoneally with 1 ml normal saline (0.9%) containing different amounts of test compound. A half minutes later they received an intraperitoneal injection of dextran (180 mg/kg, molecular weight about 250,000) or saline as vehicle control. Five minutes later the animals were killed, the peritoneal fluid was collected and centrifuged, and the supernatant was assayed fluorophotometrically for histamine. […] The percent inhibition was calculated using the following formula: [formula] The ED50, the dose required for 50% inhibition, was calculated from the dose-responsive curve.

[3] = tested on: histamine release from the peritoneal cavity; settings: dextran-induced histamine release, in this experimental method (Hanahoe et al.); cited from earlier work

Row | Structure (SMILES) | inhibition at 0.01 µg/mL [1] [%] | inhibition at 0.1 µg/mL [1] [%] | ED50 [2] [µg/kg] | inhibition of the release of histamine [3]
1 | O=c1c2cc(-c3nnn[nH]3)ccc2oc2ncccc12 [Compound A, 7-(5-1H-tetrazolyl)-5-oxo-5H-[1]benzopyrano[2,3-b]pyridine] | 25.2 | 35.3 | 1 | –
2 | O=c1c2cccnc2oc2c(Cl)cc(-c3nnn[nH]3)cc12 [Compound B, 9-chloro-7-(5-1H-tetrazolyl)-5-oxo-5-H-[1]benzopyrano[2,3-b]-pyridine] | 19 | 22.6 | 0.25 | –
3 | O=C(O)c1cc(=O)c2c(OCC(O)COc3cccc4oc(C(=O)O)cc(=O)c34)cccc2o1 [disodium cromoglycate] | – | – | – | inhibits markedly

— patent publication US4085111A, “1H-tetrazole derivatives” (Yoshitomi Pharmaceutical Industries, Ltd., priority 1974, dated 1978)
